The values that follow come from PMC9330389, “Bambus[4,6]urils as Dual Scaffolds for Multivalent Iminosugar Presentation and Ion Transport: Access to Unprecedented Glycosidase-Directed Anion Caging Agents” (Molecules, 2022).

The target of assay [1] is T1, Jack Bean α-mannosidase (Canavalia ensiformis, UniProt C0HJB3).
T1 construct: purchased Sigma Aldrich, St. Louis, MO, USA
T1 sequence (C0HJB3 1-981): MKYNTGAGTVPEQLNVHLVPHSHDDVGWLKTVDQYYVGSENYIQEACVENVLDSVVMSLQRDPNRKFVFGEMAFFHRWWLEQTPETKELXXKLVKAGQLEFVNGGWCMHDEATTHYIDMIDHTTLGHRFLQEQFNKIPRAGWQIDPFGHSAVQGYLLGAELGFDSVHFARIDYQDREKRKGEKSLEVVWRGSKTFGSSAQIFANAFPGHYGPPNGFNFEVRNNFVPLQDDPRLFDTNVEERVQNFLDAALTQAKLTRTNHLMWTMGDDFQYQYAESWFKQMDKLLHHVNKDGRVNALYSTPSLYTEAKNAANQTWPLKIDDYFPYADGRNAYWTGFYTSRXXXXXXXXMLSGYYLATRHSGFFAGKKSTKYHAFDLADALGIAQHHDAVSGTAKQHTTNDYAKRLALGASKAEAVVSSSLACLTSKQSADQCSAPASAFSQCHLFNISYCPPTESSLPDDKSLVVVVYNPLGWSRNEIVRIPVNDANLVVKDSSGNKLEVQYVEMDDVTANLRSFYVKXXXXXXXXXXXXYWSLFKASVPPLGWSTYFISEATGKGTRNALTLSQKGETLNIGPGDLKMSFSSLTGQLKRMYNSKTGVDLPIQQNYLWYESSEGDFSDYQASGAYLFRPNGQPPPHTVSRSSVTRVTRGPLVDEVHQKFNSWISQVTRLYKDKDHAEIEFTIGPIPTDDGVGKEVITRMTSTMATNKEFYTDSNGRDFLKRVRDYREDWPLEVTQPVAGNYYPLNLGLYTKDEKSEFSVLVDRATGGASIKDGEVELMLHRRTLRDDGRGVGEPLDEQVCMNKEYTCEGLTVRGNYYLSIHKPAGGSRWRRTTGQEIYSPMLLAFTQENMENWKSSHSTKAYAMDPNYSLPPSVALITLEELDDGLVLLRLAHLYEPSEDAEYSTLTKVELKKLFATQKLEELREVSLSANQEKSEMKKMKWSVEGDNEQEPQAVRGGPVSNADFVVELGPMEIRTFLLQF
Particulars: cited from earlier work; for Inhibition Mode: monovalent references.

Assay [2] concerns the target T1, Jack Bean α-mannosidase. As to the kind of experiment: Inhibition assays on Jack-Bean α-mannosidase (p-nitrophenyl-α-D-mannopyranoside hydrolysis, Dixon and Lineweaver–Burk). The format is biochemical. Particulars: for Ki: 0.2 M acetate buffer pH 5, 25-27 °C, for mixed inhibitors the first value of the cell (Ki); for Ki': mixed inhibition, second value of the cell (Ki' in supplement); for Rp (relative potency): rp = Ki (monovalent reference)/Ki (neoglycocluster). How it is done:
p-nitrophenyl-α-D-mannopyranoside and α-mannosidase (EC 3.2.1.24, from Jack Bean) were purchased from Sigma Aldrich, St. Louis, MO, USA. Inhibition constants were determined spectrophotometrically by measuring the residual hydrolytic activities of the α-mannosidase against p-nitrophenyl-α-D-mannopyranoside in the presence and absence of an inhibitor. Each well was filled with a total volume of 100 µL, containing 0.2 M acetate buffer pH 5, inhibitor, substrate and enzyme. All kinetics were performed between 25 °C and 27 °C and started by enzyme addition. After 30–50 min of incubation, the reaction was quenched by addition of 100 µL of 1M Na2CO3. The absorbance of the resulting solution was determined at 405 nm. Ki values were determined in triplicate, using the Dixon and Lineweaver–Burk graphical methods within Microsoft Excel. Stock solutions of inhibitors were prepared with DMSO/buffer for final well DMSO content under 5%. The stability of the enzyme in the presence of the same concentrations of DMSO was controlled and enzyme activity was unaffected.

A short description of assay [3]: Isothermal titration calorimetry of iodide binding to bambusuril. Particulars: in water, ITC. The protocol:
ITC measurements were performed with a VP-ITC microcalorimeter (Microcal, GEHealthcare). Experiments were carried out in water and in a solution of K2HPO4 (1.5 mM) in mili-Q water at 298.15 ± 0.1 K. Anion binding to BU was investigated via a classical isothermal titration experiment (10 µL additions) and a single injection method (SIM). Injection of sodium iodide solution was added automatically to the BU solution present in the calorimeter cell while stirring at 307 rpm. Integrated heat effects were analyzed by non-linear regression using a single-site binding model (Microcal Origin 7). The experimental data fitted to a theorical titration curve, giving the association constant Ka, the enthalpy of binding ΔH° and the entropy ΔS°. The free energy ΔG° was calculated from the equation: ΔG° = ΔH° − TΔS°, where T is the absolute temperature. The first smaller addition (2 µL), which was used to compensate for diffusion of the guest from the injector during equilibration, was discarded prior to data fitting.
Figure S1. Isothermal titration calorimetry of I- binding to (DNJ-C6)12BU[6] 6 in H2O.
Top: Data were obtained from the sequential injections of 10µL of guest solution (0.6 mM NaI) to BU
6 (0.05 mM). Bottom: Plot of the total heat released as a function of the total ligand concentration
for the titration shown upper.
(1 picture or pasted object on this page, not shown here)
On the technique in general: ITC needs no label: the signal is the heat of the interaction.

Where two headings read alike, the source gives them in different places. Some results are limits rather than exact numbers.

`CCCn1cc(CCCCCCN2C[C@H](O)[C@@H](O)[C@H](O)[C@H]2CO)nn1` [Compound 21]: on Jack Bean α-mannosidase [1] (monovalent C6 reference), the Ki is 322 µM. The “Inhibition Mode” value at Jack Bean α-mannosidase [1] is “competitive”.

Regarding `CCCn1cc(CCCCCCCCCN2C[C@H](O)[C@@H](O)[C@H](O)[C@H]2CO)nn1` [Compound 22], at Jack Bean α-mannosidase [1] (monovalent C9 reference), the Ki was 188 µM. Moreover, the “Inhibition Mode” value on Jack Bean α-mannosidase [1] was “competitive”.

Turning to `O=C1N(Cc2cn(CCCCCCN3C[C@H](O)[C@@H](O)[C@H](O)[C@H]3CO)nn2)C2C(N1Cc1cn(CCCCCCN3C[C@H](O)[C@@H](O)[C@H](O)[C@H]3CO)nn1)N1CN3C(=O)N(CN4C(=O)N(CN5C(=O)N(CN6C(=O)N(CN7C(=O)N(CN2C1=O)C1C7N(Cc2cn(CCCCCCN7C[C@H](O)[C@@H](O)[C@H](O)[C@H]7CO)nn2)C(=O)N1Cc1cn(CCCCCCN2C[C@H](O)[C@@H](O)[C@H](O)[C@H]2CO)nn1)C1C6N(Cc2cn(CCCCCCN6C[C@H](O)[C@@H](O)[C@H](O)[C@H]6CO)nn2)C(=O)N1Cc1cn(CCCCCCN2C[C@H](O)[C@@H](O)[C@H](O)[C@H]2CO)nn1)C1C5N(Cc2cn(CCCCCCN5C[C@H](O)[C@@H](O)[C@H](O)[C@H]5CO)nn2)C(=O)N1Cc1cn(CCCCCCN2C[C@H](O)[C@@H](O)[C@H](O)[C@H]2CO)nn1)C1C4N(Cc2cn(CCCCCCN4C[C@H](O)[C@@H](O)[C@H](O)[C@H]4CO)nn2)C(=O)N1Cc1cn(CCCCCCN2C[C@H](O)[C@@H](O)[C@H](O)[C@H]2CO)nn1)C1C3N(Cc2cn(CCCCCCN3C[C@H](O)[C@@H](O)[C@H](O)[C@H]3CO)nn2)C(=O)N1Cc1cn(CCCCCCN2C[C@H](O)[C@@H](O)[C@H](O)[C@H]2CO)nn1` (some centres unmarked) [Compound 6, (DNJ-C6)12BU[6]], on Jack Bean α-mannosidase [2], the “Inhibition Mode” value is recorded as “mixed”, affinity was put at a Ki of 68.2 µM, the “Ki'” value stood at 147 ± 21 µM and the “Rp (relative potency)” value worked out at 4.7. Further, in assay [3], the “Ka (iodide)” value is 480000 M⁻¹.

As to `CCCC[N+](CCCC)(CCCC)CCCC.O=C1N(Cc2cn(CCCCCCN3C[C@H](O)[C@@H](O)[C@H](O)[C@H]3CO)nn2)C2C(N1Cc1cn(CCCCCCN3C[C@H](O)[C@@H](O)[C@H](O)[C@H]3CO)nn1)N1CN3C(=O)N(CN4C(=O)N(CN5C(=O)N(CN6C(=O)N(CN7C(=O)N(CN2C1=O)C1C7N(Cc2cn(CCCCCCN7C[C@H](O)[C@@H](O)[C@H](O)[C@H]7CO)nn2)C(=O)N1Cc1cn(CCCCCCN2C[C@H](O)[C@@H](O)[C@H](O)[C@H]2CO)nn1)C1C6N(Cc2cn(CCCCCCN6C[C@H](O)[C@@H](O)[C@H](O)[C@H]6CO)nn2)C(=O)N1Cc1cn(CCCCCCN2C[C@H](O)[C@@H](O)[C@H](O)[C@H]2CO)nn1)C1C5N(Cc2cn(CCCCCCN5C[C@H](O)[C@@H](O)[C@H](O)[C@H]5CO)nn2)C(=O)N1Cc1cn(CCCCCCN2C[C@H](O)[C@@H](O)[C@H](O)[C@H]2CO)nn1)C1C4N(Cc2cn(CCCCCCN4C[C@H](O)[C@@H](O)[C@H](O)[C@H]4CO)nn2)C(=O)N1Cc1cn(CCCCCCN2C[C@H](O)[C@@H](O)[C@H](O)[C@H]2CO)nn1)C1C3N(Cc2cn(CCCCCCN3C[C@H](O)[C@@H](O)[C@H](O)[C@H]3CO)nn2)C(=O)N1Cc1cn(CCCCCCN2C[C@H](O)[C@@H](O)[C@H](O)[C@H]2CO)nn1.[I-]` (some centres unmarked) [Compound 9, I^-@(DNJ-C6)12BU[6].TBA^+], at Jack Bean α-mannosidase [2], the “Inhibition Mode” value is “mixed”, the Ki worked out at 108 µM, the “Ki'” value was 162 ± 40 µM and the “Rp (relative potency)” value was 3.0. In addition, the “rp/n (relative potency per inhitope)” value on Jack Bean α-mannosidase [2] (n = number of inhitope units) was under 1.

In general, Ki refers to a measure of affinity in units of concentration, obtained from inhibition or displacement.
